Data from publication PMC11054271, “ABCG2 Transports the Flukicide Nitroxynil and Affects Its Biodistribution and Secretion into Milk” (Pharmaceutics, 2024).

How the values were obtained:
[1] = molecular target: T1, murine Abcg2 (Mus musculus, UniProt Q7TMS5); assay: Plasma pharmacokinetics in wild-type and Abcg2−/− male mice; format: in vivo; parameters: from tissue; host or cells: whole animal: wild-type vs Abcg2-/- mice, >99% FVB/N background; conditions: 10 mg/kg s.c.
T1 sequence (Q7TMS5 1-657): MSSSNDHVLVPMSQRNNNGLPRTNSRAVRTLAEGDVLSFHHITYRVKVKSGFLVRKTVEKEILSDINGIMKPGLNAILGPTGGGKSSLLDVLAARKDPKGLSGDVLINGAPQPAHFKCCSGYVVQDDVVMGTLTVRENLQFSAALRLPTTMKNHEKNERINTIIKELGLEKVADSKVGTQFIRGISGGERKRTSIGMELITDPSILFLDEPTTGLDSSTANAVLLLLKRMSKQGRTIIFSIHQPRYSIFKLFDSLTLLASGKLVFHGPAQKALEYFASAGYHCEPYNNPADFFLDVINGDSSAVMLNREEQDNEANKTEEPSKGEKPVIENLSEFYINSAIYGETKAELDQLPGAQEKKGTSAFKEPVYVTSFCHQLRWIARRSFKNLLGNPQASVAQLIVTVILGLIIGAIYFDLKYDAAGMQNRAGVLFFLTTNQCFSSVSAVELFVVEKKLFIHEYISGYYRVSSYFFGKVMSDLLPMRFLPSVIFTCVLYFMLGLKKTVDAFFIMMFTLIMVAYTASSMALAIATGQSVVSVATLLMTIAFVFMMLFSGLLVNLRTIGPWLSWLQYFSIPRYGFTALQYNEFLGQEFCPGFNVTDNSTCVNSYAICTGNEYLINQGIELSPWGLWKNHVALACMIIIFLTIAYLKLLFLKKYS
Procedure: (§1) All in vivo experiments were carried out using wild-type and Abcg2^−/− mice aged between 8 and 17 weeks, all of >99% FVB/N genetic background, generated and gently supplied by A. H. Schinkel (Netherlands Cancer Institute). Mice were housed and handled complying with institutional and ARRIVE guidelines and European legislation (EU Directive 2010/63/EU for animal experiments). Additionally, experimental procedures were approved by the Animal Care and Use Committee of the University of León and the Junta de Castilla y León (ULE_011_2019).
For pharmacokinetic experiments, a single dose of nitroxynil at 10 mg/kg was administered subcutaneously to wild-type and Abcg2^−/− male mice (n = 4–5, for each time point). Distomicide® (250 mg/mL) commercial solution was dissolved in saline (sodium chloride 0.9%) and dosed at 200 μL per 30 g body weight. Blood samples were collected at different time points (0.5, 3, 4.5, 6, 24, 48 and 96 h) and heparinized blood samples were centrifugated for 15 min at 3000× g. […]
(§2) Plasma, milk and tissue samples from each animal were individually processed and analyzed without pooling, while samples from transport assays were not processed. […]
(§3) Waters 2695 separation module and Waters 2998 UV photodiode array detector set at 270 nm were used for samples analysis. […] Limit of detection (LOD) and quantification (LOQ) were calculated as previously described. […]

[2] = molecular target: T1, murine Abcg2; assay: Milk secretion experiment in lactating wild-type and Abcg2−/− female mice; format: in vivo; parameters: from tissue; host or cells: whole animal: wild-type vs Abcg2-/- mice, >99% FVB/N background; conditions: lactating female mice, 30 min after 10 mg/kg i.v.
Procedure: as §1
Pups of approximately 10 days old were separated from their mothers (wild-type (n = 10) and Abcg2^−/− (n = 11) female mice) 3 h before beginning the experiment. Milk secretion experiments were performed as previously described. Nitroxynil solution was prepared by diluting Distomicide® (250 mg/mL) commercial solution in saline and administered at a dose of 150 μL/30 g bw into the tail vein under anesthesia with isoflurane. […]
as §2, §3

- AUC ([1]; FVB/N, mouse, plasma, sc, wild-type male mice, 0.5-96 h): 1920 ± 49.1 µg·h/mL
- Plasma AUC, fold higher in Abcg2−/− compared with wild-type ([1]; male mice): 1.8 fold
- Milk concentration, fold higher in wild-type compared with Abcg2−/− [2]: 1.9 fold
- Milk-to-plasma ratio, fold higher in wild-type compared with Abcg2−/− [2]: 2.1 fold
SMILES: N#Cc1cc(I)c(O)c([N+](=O)[O-])c1 [nitroxynil]
